Data taken from patent US7309817B2, “Plant alpha farnesene synthase and polynucleotides encoding same” (The Horticulture and Food Research Institute of New Zealand …, priority 2002, dated 2007).

Tests used:
[1] = test system: other sesquiterpene synthases; conditions: other sesquiterpene synthases (Cai et al 2002, Steele et al 1998); read-out: Km reported in the literature; cited from earlier work
[2] = molecular target: T1, alpha-farnesene synthase (Malus domestica, UniProt Q84LB2, A297S/I281F); format: biochemical; conditions: for Vrel (%), relative activity due to additions of metal ions: saturating FDP, Mg 7 mM, Mn 150 μM, KCl or NaCl 50 mM
T1 construct: a cDNA fragment encoding EST57400 was excised from pBK-CMV57400 using a EcoRI restriction endonuclease site immediately adjacent to the start ATG; His6 (from vector pET-30a) (N); made in house; host or cells: E. coli BL21-CodonPlus-RIL
Protocol: Kinetic Studies: For kinetic studies, alpha-farnesene synthase active protein that had been induced in culture and purified as described for protein optimisation was added to a minimal assay buffer containing 50 mM Bis-Tris-Propane (pH 7.5), 10% (v/v) glycerol, 1 mM DTT and 0.1% (v/v) Tween-20. […] One mL assays containing 1-2 μg of protein were overlaid with 0.6 mL pentane and incubated in 1.5 mL microfuge tubes for 2 hours at 30° C. and 150 rpm. All assays were performed in triplicate. Following incubation assays were immediately placed on ice and a 200 μL aliquot of the pentane layer removed for analysis. The aliquots were added to 1.5 mL microfuge tubes containing […] Organic Counting Scintillant (OCS) (Amersham) and vortexed briefly. Scintillation analysis was performed using a Wallac 1409 Liquid Scintillation Counter (^3H efficiency≈70%).
The effect on enzyme activity of metal co-factors with and without salts was also tested. Mg^2+ and Mn^2+ were added in the presence and absence of 50 mM KCL and 50 mM NaCl in all possible combinations. Controls included incubation without enzyme, with enzyme but without metal ion cofactors and with enzyme and cofactors in the presence of 10 mM EDTA.
Kinetic constants were determined from the DPM data by nonlinear regression using the Origin50 graphics package. […] All experiments were carried out at least twice.

[3] = test system: CC(C)=CCC/C(C)=C/CC/C(C)=C/CO[P@@](=O)(O)OP(=O)(O)O; experiment: purified protein, by the assay type; conditions: other: protein stored at -80 C for 9 months; pH 7.5
[4] = Storage stability of purified recombinant alpha-farnesene synthase at -80 C; format: physicochemical
Protocol: Characterization of alpha-farnesene synthase from bacterial extracts and partially purified alpha-farnesene synthase recombinant protein: Cultures were set up, grown and induced as above. Following induction, cultures were immediately transferred to a 24° C. incubator and allowed to grow for a further 18-20 hours with continuous agitation and then cells harvested by centrifugation (2000×g for 10 min). […] The remainder of the extract (15 ml) was applied to PD-10 gel filtration columns (Amersham-Pharmacia Biotech) pre-equilibrated with either binding or extraction buffer (DTT omitted). Eluent fractions were then pooled and purification of recombinant protein was carried out in a single step using immobilised metal affinity chromatography (IMAC). The eluent was applied to a Hi-Trap Chelating HP column (Amersham-Pharmacia Biotech) charged with Ni^+. Non bound proteins were removed and recombinant protein was eluted following the manufacturer's specifications. […] Headspace volatiles were collected as in the bacterial cultures. Aliquots of the remaining recombinant protein were stored at −80° C. in 20% glycerol until required.
Protein concentration was determined from the extinction coefficient (VectorNTI version 8) and the purified extract adjusted to ˜1 mg protein/mL with His6 elution buffer containing 10% glycerol and 1 mM DTT. […]

Molecule: [Mn+2] [Mn^2+]
- Km [1]: 7 to 30 µM
- inhibition of activity at high Mn2+ concentration ([2]; >800 μM Mn2+): at least 50%
- Vrel (%), relative activity due to additions of metal ions [2]: 13%

Molecule: alpha-farnesene synthase (Malus domestica; A297S/I281F)
- Km [3]: 1.5 µM

Molecule: [Mg+2] [Mg^2+]
- Km [1]: 70 to 150 µM
- inhibition of activity at high Mg2+ concentration ([2]; 25 mM Mg2+): 23%
- Vrel (%), relative activity due to additions of metal ions [2]: 16%

B1: alpha-farnesene synthase: recombinant His-tagged sesquiterpene synthase from apple (Malus domestica Royal Gala) skin, expressed in E. coli (protein, listed as Malus domestica)
chain: MEFRVHLQADNEQKIFQNQMKPEPEASYLINQRRSANYKPNIWKNDFLDQSLISKYDGDEYRKLSEKLIEEVKIYISAETMDLVAKLELIDSVRKLGLANLFEKEIKEALDSIAAIESDNLGTRDDLYGTALHFKILRQHGYKVSQDIFGRFMDEKGTLENHHFAHLKGMLELFEASNLGFEGEDILDEAKASLTLALRDSGHICYPDSNLSRDVVHSLELPSHRRVQWFDVKWQINAYEKDICRVNATLLELAKLNFNVVQAQLQKNLREASRWWANLGFADNLKFARDRLVECFSCAVGVAFEPEHSSFRICLTKVINLVLIIDDVYDIYGSEEELKHFTNAVDRWDSRETEQLPECMKMCFQVLYNTTCEIAREIEEENGWNQVLPQLTKVWADFCKALLVEAEWYNKSHIPTLEEYLRNGCISSSVSVLLVHSFFSITHEGTKEMADFLHKNEDLLYNISLIVRLNNDLGTSAAEQERGDSPSSIVCYMREVNASEETARKNIKGMIDNAWKKVNGKCFTTNQVPFLSSFMNNATNMARVAHSLYKDGDGFGDQEKGPRTHILSLLFQPLVN
modifications: His tag
notes: recombinant His-tagged sesquiterpene synthase from apple (Malus domestica Royal Gala) skin, expressed in E. coli
- loss of activity on storage ([4]; stored at -80 C for 9 months): 92.5%
- loss of activity on storage ([4]; stored in glycerol for 4 weeks at -80 C): 15%
- temperature of maximum activity ([2]; 7 mM Mg, 150 μM Mn, 25 μM FDP, FIG. 14): 37 °C
